The source made the active and inactive calls.
Columns and labels:
A-375 [1] = test: proliferation inhibition in MITF-low A375 cells – cell-based, cherry-pick samples, set 2, counter-screen for MITF modulator project, dose response (AID 540335); type: functional; conditions: Homo sapiens
A-375 [2] = test: MITF: Counter assay: A375 proliferation Measured in Cell-Based System Using Plate Reader - 2084-03_Inhibitor_Dose_DryPowder_Activity. [Related pubchem assays (depositor defined):AID488944]; type: functional; conditions: Homo sapiens
[3] = target: Heat shock protein HSP 90-alpha (Homo sapiens, UniProt P07900); type: functional, organism-based
P388 = test: cells; type: functional; conditions: Mus musculus
[4] = target: T1, Microphthalmia-associated transcription factor (Homo sapiens, UniProt O75030); test: reducers of TRPM1 reporter luminescence, concentration series – cell-based, SK-MEL-5, cherry-picked, set 3, MITF inhibitor project, dose response (AID 493073); type: functional;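 also: SK-MEL-5 melanoma cells with luciferase driven by the MITF target TRPM1 promoter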
T1 sequence (O75030 whole entry): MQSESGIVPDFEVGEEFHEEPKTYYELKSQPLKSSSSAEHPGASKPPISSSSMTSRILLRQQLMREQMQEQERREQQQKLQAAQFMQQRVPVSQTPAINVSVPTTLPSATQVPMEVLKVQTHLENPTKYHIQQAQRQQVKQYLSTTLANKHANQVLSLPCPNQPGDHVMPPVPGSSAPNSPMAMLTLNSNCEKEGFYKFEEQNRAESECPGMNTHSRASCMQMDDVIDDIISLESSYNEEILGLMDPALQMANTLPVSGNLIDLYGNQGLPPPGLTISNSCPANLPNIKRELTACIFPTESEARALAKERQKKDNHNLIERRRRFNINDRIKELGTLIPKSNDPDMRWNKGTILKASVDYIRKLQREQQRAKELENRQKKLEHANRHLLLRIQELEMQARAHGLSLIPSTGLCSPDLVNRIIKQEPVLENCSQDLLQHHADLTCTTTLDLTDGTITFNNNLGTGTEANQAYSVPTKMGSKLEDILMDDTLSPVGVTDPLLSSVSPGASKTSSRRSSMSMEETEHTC

SN12K1 = test: cells; type: functional; conditions: Homo sapiens
P388/ADR = test: cells; type: functional; conditions: Mus musculus
Escherichia coli [5] = test: microbe, parasite or virus in culture
Escherichia coli [6] = test: microbe, parasite or virus in culture; remark: listed apart in the source
Cysteine protease ATG4B = Cysteine protease ATG4B (Homo sapiens, UniProt Q9Y4P1); type: functional;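 also: Fluorescence-based dose-response confirmation assay measuring inhibition of ATG4B activity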
Chain of Cysteine protease ATG4B (Q9Y4P1 whole entry): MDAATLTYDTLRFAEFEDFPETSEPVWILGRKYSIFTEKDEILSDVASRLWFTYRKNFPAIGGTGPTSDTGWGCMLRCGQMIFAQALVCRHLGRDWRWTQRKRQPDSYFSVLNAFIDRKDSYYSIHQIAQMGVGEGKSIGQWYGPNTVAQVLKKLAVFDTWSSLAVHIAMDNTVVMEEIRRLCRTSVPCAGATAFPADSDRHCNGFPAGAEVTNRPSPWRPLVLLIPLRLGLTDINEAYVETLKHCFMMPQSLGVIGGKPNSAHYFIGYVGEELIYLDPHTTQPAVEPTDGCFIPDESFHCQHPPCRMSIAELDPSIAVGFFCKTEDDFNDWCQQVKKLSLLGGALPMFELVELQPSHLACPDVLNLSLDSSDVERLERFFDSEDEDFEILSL

Phospholipase A2 = Phospholipase A2 (Homo sapiens, UniProt P04054); type: functional;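 also: confirmatory dose-response counterscreen on phospholipase A2, testing hits that came from an ultra-high-throughput screen for ATG4B inhibitors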
Chain of Phospholipase A2 (P04054 whole entry): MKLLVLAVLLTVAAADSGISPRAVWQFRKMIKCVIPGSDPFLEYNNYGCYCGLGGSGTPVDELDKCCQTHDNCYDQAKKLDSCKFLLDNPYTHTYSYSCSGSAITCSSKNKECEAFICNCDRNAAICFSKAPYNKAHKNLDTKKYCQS

[7] = target: T2, Calpain-2 catalytic subunit (Sus scrofa, UniProt P43367); test: m-calpain protease blockers, concentration series – biochemical, fluorogenic peptide substrate, dose response (AID 1420); type: functional
T2 sequence (P43367 whole entry): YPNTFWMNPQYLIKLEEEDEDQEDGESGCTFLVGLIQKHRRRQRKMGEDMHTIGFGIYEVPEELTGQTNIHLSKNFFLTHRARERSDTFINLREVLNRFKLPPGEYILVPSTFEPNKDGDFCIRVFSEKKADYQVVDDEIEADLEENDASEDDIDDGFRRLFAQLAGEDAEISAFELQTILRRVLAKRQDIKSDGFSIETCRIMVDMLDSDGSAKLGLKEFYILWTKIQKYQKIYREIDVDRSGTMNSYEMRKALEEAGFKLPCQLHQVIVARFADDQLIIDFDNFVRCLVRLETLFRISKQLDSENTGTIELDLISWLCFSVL

[8] = target: Serine/threonine-protein phosphatase (Candida dubliniensis (strain CD36 / CBS 7987 / NCPF 3949 / NRRLY-17841) (Yeast), UniProt B9W6M3); test: blockers of CaCl2-induced CDRE-lacZ signaling – S. cerevisiae, luminescence, secondary, dose response (AID 2388); type: functional, cell-based;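 also: yeast reporter cells carrying a calcineurin-responsive lacZ construct stimulated with calcium chloride; luminescent beta-galactosidase reporter signal in whole cells rather than isolated phosphatase activity; potency for inhibition where a drop in reporter signal means calcineurin blockade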
Chain of Serine/threonine-protein phosphatase (B9W6M3 whole entry): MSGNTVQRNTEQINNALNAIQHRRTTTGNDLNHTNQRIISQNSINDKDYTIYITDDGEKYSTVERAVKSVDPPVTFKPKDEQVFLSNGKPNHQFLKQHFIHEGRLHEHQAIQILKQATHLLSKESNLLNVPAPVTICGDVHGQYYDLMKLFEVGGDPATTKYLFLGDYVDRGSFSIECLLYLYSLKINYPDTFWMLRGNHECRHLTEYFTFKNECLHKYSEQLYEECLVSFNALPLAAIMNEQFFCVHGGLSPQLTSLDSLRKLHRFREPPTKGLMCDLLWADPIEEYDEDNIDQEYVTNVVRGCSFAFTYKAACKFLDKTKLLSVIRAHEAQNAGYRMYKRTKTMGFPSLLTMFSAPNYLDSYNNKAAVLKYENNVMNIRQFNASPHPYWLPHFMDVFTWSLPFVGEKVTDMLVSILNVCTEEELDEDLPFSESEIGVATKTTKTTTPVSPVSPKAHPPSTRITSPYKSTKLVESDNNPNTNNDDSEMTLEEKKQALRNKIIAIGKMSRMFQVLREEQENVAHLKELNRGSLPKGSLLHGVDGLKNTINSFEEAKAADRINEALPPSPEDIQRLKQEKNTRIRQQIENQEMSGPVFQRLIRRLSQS

[9] = fluconazole-exposed Candida albicans growth modulators – fluorescence, retest, confirmation (AID 2467); type: functional, cell-based
[10] = target: ATP-dependent molecular chaperone HSP82 (Candida albicans (strain WO-1) (Yeast), UniProt C4YTQ8); test: steroid-induced GRE reporter decrease in yeast – S. cerevisiae, luminescence, Hsp90 inhibitor project, dose response (AID 2400); type: functional, cell-based;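 also: beta-galactosidase luminescence from glucocorticoid response element reporter as proxy for Hsp90 function; inhibitor potency where signal loss means Hsp90 inhibition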
Chain of ATP-dependent molecular chaperone HSP82 (C4YTQ8 whole entry): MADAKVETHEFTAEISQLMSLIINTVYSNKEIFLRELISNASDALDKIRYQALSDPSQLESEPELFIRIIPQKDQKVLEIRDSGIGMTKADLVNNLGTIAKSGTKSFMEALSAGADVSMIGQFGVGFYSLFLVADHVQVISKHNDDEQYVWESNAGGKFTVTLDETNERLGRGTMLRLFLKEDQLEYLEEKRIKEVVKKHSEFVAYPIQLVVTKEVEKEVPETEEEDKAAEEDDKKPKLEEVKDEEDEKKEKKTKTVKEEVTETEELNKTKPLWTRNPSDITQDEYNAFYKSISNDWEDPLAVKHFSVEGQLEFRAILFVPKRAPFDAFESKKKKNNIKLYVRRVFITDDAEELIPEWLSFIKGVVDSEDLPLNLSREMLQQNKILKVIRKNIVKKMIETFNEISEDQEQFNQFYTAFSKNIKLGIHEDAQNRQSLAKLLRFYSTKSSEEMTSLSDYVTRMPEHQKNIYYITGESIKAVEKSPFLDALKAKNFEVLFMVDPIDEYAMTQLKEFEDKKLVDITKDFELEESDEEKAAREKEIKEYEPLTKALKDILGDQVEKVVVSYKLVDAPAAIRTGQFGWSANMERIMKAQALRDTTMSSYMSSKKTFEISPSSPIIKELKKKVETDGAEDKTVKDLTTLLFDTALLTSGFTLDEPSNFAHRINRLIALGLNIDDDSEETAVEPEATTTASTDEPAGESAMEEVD

[11] = NIH-3T3 fibroblast cytotoxicity, dose response, cytotoxicity control, cell-based, fluorescence, Alamar Blue, secondary assay (AID 2327); type: functional;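 also: NIH-3T3 mouse fibroblasts cultured with fluconazole at 8 µg/mL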
[12] = target: T3, Short transient receptor potential channel 4 (Mus musculus, UniProt Q9QUQ5); test: calcium entry via TRPC4 opening agents – cell-based, HEK293 TRPC4/mu-opioid, Fluo-4 calcium, dose response (AID 434937); type: functional
T3 sequence (Q9QUQ5 whole entry): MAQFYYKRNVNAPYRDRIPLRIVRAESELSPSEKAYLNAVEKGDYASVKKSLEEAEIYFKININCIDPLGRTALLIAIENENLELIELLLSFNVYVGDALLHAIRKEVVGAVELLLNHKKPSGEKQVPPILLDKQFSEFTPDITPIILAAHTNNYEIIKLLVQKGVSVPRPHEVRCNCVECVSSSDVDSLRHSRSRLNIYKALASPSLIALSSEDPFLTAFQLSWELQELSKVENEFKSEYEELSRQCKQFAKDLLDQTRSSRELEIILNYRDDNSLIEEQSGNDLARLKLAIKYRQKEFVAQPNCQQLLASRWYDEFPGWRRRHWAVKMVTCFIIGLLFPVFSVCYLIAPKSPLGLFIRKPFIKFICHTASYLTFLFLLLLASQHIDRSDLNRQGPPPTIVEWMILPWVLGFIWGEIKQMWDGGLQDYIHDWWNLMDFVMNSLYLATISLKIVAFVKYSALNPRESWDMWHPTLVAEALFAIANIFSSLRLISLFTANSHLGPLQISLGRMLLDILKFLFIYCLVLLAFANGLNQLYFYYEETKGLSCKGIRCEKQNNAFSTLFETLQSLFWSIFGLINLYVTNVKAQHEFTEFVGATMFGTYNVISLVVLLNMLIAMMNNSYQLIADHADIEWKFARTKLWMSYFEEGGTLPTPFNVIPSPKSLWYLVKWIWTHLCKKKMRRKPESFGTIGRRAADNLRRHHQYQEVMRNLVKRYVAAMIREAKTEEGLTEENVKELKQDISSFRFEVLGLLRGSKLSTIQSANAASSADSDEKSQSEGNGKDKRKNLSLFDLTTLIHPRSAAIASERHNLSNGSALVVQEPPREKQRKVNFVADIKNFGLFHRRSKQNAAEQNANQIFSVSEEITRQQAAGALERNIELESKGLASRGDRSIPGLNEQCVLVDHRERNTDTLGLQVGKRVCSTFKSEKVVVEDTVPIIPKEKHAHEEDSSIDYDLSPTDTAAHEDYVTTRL

Vero [13] = test: cells; type: functional, cell-based; conditions: Chlorocebus sabaeus
[14] = HGIII-sPLA2 enzyme inhibition potency – biochemical, QFRET, IC50, dose response (AID 743457);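 also: green fluorescence rise as the enzyme cleaves BODIPY PC-A2 in liposomes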
cells = type: functional
Vero [15] = test: cells; type: functional; conditions: Chlorocebus sabaeus
[16] = tested on: Streptococcus sp. 'group A'; test: Streptococcus pyogenes SK(-)GAS viability under kanamycin – luminescence, BacTiterGlo, confirmation, counter-screen for streptokinase expression inhibitor project, dose response (AID 1900); type: functional, organism-based
Streptococcus = test: GAS UMAA2166 growth inhibition – luminescence, BacTiterGlo, counter-screen for streptokinase expression inhibitor project, dose response (AID 1915); type: functional, organism-based;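 also: potency for reduction of bacterial viability or growth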
[17] = HepG2 cell cytotoxicity, dose response, cytotoxicity control for non-replicating M. tuberculosis project (AID 489018); type: functional; conditions: Mycobacterium tuberculosis
[18] = THP-1 cell cytotoxicity, dose response, cytotoxicity control for non-replicating M. tuberculosis project (AID 489025); type: functional
[19] = Vero E6 cell cytotoxicity, dose response, cytotoxicity control for non-replicating M. tuberculosis project, secondary assay (AID 492998); type: functional, VeroE6; conditions: Vero C1008
[20] = target: T4, Small ubiquitin-related modifier 1 (Homo sapiens, UniProt P63165); test: SUMO1 protein-protein binding blockers, potency – biochemical, FRET, dose response (AID 624383); type: functional; conditions: read-out: IC50_Mean
T4 sequence (P63165 whole entry): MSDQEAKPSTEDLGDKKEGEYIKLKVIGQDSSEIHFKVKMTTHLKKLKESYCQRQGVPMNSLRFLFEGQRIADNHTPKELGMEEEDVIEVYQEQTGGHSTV

[21] = target: T4, Small ubiquitin-related modifier 1; test: SUMO1 protein interaction blockers, potency – biochemical, fluorescence polarization, uHTS hits, dose response (AID 624382); type: functional; conditions: read-out: IC50_Mean
[22] = target: T5, Ubiquitin-conjugating enzyme E2 N (Homo sapiens, UniProt P61088); type: functional
T5 sequence (P61088 whole entry): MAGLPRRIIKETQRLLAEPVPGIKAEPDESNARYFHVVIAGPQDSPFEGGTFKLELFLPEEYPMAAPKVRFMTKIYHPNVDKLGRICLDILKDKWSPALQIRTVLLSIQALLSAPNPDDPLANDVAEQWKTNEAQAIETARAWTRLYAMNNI

Bcl-2-related protein A1 = target: T6, Bcl-2-related protein A1 (Mus musculus, UniProt Q07440); type: functional;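 also: confirmatory dose–response counterscreen on Bfl-1, used to check hits from a UBC13 polyubiquitin inhibitor campaign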
T6 sequence (Q07440 whole entry): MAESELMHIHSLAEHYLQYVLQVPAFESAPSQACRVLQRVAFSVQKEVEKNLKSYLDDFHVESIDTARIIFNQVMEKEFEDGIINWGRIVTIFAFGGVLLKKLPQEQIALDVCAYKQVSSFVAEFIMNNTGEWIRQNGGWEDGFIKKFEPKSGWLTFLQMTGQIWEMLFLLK

[23] = target: T7, Rac GTPase-activating protein 1 (Homo sapiens, UniProt Q9H0H5); test: blockers of MgcRacGAP-driven Rac1 GTP hydrolysis – biochemical, ADP Hunter fluorescence, primary and confirmatory, confirmation (AID 624330); type: functional
T7 sequence (Q9H0H5 whole entry): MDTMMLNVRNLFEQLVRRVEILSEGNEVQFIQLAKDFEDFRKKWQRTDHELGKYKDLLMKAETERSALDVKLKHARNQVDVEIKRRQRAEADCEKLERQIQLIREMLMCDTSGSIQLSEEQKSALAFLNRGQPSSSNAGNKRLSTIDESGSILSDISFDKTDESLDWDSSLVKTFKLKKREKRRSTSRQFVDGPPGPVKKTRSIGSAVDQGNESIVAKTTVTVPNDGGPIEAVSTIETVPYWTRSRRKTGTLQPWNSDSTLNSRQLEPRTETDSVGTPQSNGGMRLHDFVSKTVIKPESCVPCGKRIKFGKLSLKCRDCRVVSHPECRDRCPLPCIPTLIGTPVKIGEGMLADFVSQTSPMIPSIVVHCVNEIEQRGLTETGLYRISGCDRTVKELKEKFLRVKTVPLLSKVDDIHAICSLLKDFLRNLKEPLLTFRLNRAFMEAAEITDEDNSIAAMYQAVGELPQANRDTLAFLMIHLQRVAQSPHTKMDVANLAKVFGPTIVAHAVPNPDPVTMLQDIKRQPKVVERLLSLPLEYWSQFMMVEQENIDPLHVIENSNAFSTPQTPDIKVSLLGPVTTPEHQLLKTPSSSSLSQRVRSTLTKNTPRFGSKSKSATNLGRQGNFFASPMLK

[24] = target: T5, Ubiquitin-conjugating enzyme E2 N; type: functional; remark: listed apart in the source

COc1ccc(/C=C/c2cc(C(F)(F)F)on2)cc1
AC50 (A-375 [1]): > 35 µM (active) | AC50 (A-375 [2]): > 35 µM (active)

CN(C)CC1CC/C(=C\c2ccc(O)cc2)C1=O (stereo unspecified)
AC50 [3]: 4.38 µM (active) | GI50 (P388): 0.491 µM (active) | AC50 [4]: 12.9 µM (active) | AC50 (A-375 [1]): > 35 µM (active) | GI50 (SN12K1): 1.78 µM (inactive) | AC50 (A-375 [2]): > 35 µM (active) | GI50 (P388/ADR): 1.69 µM (inactive)

COc1cc(-c2noc(-c3ccccc3C(=O)NCc3ccco3)n2)cc(OC)c1OC
AC50 (Escherichia coli [5]): 71.1 µM (active) | AC50 (Escherichia coli [6]): 40.5 µM (active)

COc1cnc(SCc2c(Cl)cccc2Cl)nc1Cl
IC50 (Cysteine protease ATG4B): 7.76 µM (active) | IC50 (Phospholipase A2): 7.65 µM (active) | IC50 [7]: < 0.4 µM (not active)

COc1ccc(C(=O)NNC(=S)NC(=O)c2ccc(Cl)cc2)cc1
EC50 [8]: > 180 µM (inactive) | EC50 [9]: 0.275 µM (active) | EC50 [10]: 13.9 µM (active) | EC50 [11]: > 160 µM (inactive)

CC(Oc1ccc(Cl)cc1)C(=O)NNC(=S)NC(=O)c1ccco1 (stereo unspecified)
AC50 [3]: 1.41 µM (active) | EC50 [12]: 5.31 µM (active) | IC50 (Vero [13]): > 25 µM (active) | IC50 [14]: 34.9 µM (inactive) | IC50 (cells): 9.22 µM (active) | CC50 (Vero [15]): > 25 µM (active) | EC50 [16]: 0.571 µM (active) | EC50 (Streptococcus): 2.29 µM (active) | CC50 [17]: > 20 µM (active) | CC50 [18]: 13.7 µM (active) | CC50 [19]: 11.2 µM (active)

O=C(Nc1ccc(C2=NCCN2)cc1)c1ccc(C(=O)Nc2ccc(C3=NCCN3)cc2)c([N+](=O)[O-])c1
IC50 [20]: 3.28 µM (active) | IC50 [21]: > 66.6 µM (inactive) | AC50 (Escherichia coli [5]): 243 µM (active) | IC50 [22]: 3.11 µM (active) | IC50 (Bcl-2-related protein A1): 4.88 µM (active) | IC50 [23]: 33.1 µM (active) | IC50 [24]: 2.17 µM (active)

— ChEMBL document CHEMBL1201862, “PubChem BioAssay data set” (2004)
